In US9334272B2, “Derivatives of purinic and pyrimidinic antiviral agents and use thereof as potent anticancer agents” (Ramot at Tel-Aviv University Ltd., priority 2007, dated 2016):

Legend:
acetylated histone H4 = experiment: Histone H4 acetylation Western blot, U-251 cells; assay type: cell-based, human; conditions: 2-4 hours of treatment
Experimental: For the determination of in vitro histone acetylation, 2.5-3×10^6 cells, seeded in 100 mm culture dishes, were supplemented with RPMI medium containing 10% heat inactivated FCS and were treated with the drugs the following day. At the specified times post-treatment, the cells were removed with a rubber policeman, centrifuged, washed, lysed with lysis buffer (PBS, Nonidet® NP-40 1%, sodium deoxycholate 0.5%, sodium dodecyl sulfate (SDS) 0.1%, 1 mM phenylmethylsulfonyl fluoride (PMSF), 1 mM sodium orthovanadate, and 1 μM each of leupeptin and pepstatin) and centrifuged at 10,000 g for 10 minutes at 4° C. […] The extract was then lyophilized, and protein concentration was determined with a BCA kit (Pierce, USA). […] The fold increase of acetylated histones was determined by the ratio of band intensities of treated and untreated cells or mice, normalized to loading control (total histone H3).
Cell lysates or acid extracted histones were solubilized in a concentrated (×4) loading buffer (62.5 mM Tris-HCl, pH 6.8, 1% SDS, 10% glycerol v/v, 1% dithiothreitol (DTT) and 0.1 mg/ml bromophenol blue). […] The membrane was exposed for 5 minutes to Chemiluminescence BioMax light film (Kodak, USA) and the intensity of the bands was measured with a VersaDoc instrument with a Quantityl program (Bio-Rad, USA). […]

herpes virus = conditions: Brigden & Whiteman, 1983; cited from earlier work
U-251 cells [1] = experiment: Cell cycle analysis (propidium iodide flow cytometry), U-251 cells; assay type: cell-based, human; conditions: 24 hours
Experimental: Cells (4×10^5) were seeded in 35 mm culture dishes and after 24 hours were starved in medium without serum for an additional 24 hours, and then treated with the drug for an additional 24 hours. The cells were then trypsinized to a single cell suspension in PBS, washed, and resuspended in PBS at a concentration of 10^6 cells/mL. The cells were fixed with 70% ethanol for 30 minutes at 4° C., centrifuged and resuspended in 1 ml PBS containing 0.1% Tween 20 and 0.05% bovine serum albumin (BSA). RNase free of DNase was added, and the cell suspension (10^6 cells) was incubated at […] for 30 minutes. The cell suspension was then chilled on ice to a temperature in the range of 2 to 8° C. Propidium iodide (50 μg/mL) was added to the cell suspension, which was than kept in the dark. Red fluorescence (>630 nm) was analyzed on the flow cytometer.

U-251 cells [2] = experiment: Reactive oxygen species by DCF-DA FACS, U-251 cells; assay type: cell-based, human; conditions: 2 hour treatment
Experimental: ROS levels were determined by FACS analysis of U-251 cells treated with dichlorodihydrofluorescein diacetate (DCF-DA), which becomes fluorescent when oxidized.

proteasome = target: T1, proteasome (Homo sapiens, UniProt P28074); experiment: Proteasome activity assay, U-251 cells; assay type: cell-based; conditions: 4 or 24 hours, alone or in combination
T1 construct: proteasome activity in U-251 cells treated for 4 or 24 hours; endogenous in cells; host or cells: U-251 cells (lysates of treated cells)
T1 sequence (P28074 60-263): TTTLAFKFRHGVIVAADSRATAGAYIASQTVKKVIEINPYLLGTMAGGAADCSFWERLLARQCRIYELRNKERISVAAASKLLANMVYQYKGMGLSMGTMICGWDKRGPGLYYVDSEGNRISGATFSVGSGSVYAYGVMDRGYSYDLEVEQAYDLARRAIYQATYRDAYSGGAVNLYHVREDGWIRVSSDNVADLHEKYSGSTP
Experimental: The peptidase or chymotrypsin-like activity of the proteasome was assayed using N-succinyl-Leu-Leu-Val-Tyr-7-amido-4-methylcoumarin. The lysates (100 μL) were incubated with 13 (M of the substrate in 100 mM Tris, pH 7.5, for 1 hour with shaking at room temperature. The reaction was stopped by addition of ice-cold ethanol, and the samples were centrifuged for 5 minutes at 2500 g. The supernatants were collected and the fluorescence was measured with excitation/emission filters of 390/460 nm using the FluoStar fluorimeter. The protein concentration was determined using a BCATM kit (Pierce) and the proteasome activity was derived from the ratio of fluorescence at 460 nm/(g of protein. The percentage of proteasome activity was calculated relative to untreated cells.

[3] = test system: kinases which phosphorylate acyclovir; experiment: Acyclovir phosphorylation (viral thymidine kinase activity) in 4T1 cell extracts; assay type: cell-based, murine; conditions: 4T1 cells, 24 hours, 40 μM
Experimental: The mammalian thymidine kinase (TK) has a narrow specificity and acts only on thymidine. […] The lysates obtained were kept at −70 ° C. until analyzed either spectroscopically or by RT-PCR. […] The ADP is converted to ATP by pyruvate kinase when it hydrolyzes phosphoenolpyruvate (PEP) to pyruvate. Lactate dehydrogenase then converts pyruvate to lactate and NADH to NAD^+. The decrease in fluorescence emitted by NADH (excitation/emission of 320/460 nm) during 10 cycles, each lasting 1 minute, were monitored using a FluoStar fluorometer. The reaction velocity was determined by the slope of the fluorescence vs. time.

U-251 cells [4] = experiment: Mitochondrial membrane potential (JC-1 staining), U-251 cells; assay type: cell-based, human; conditions: 60 μM, 24 hour treatment
U-251 cells [5] = experiment: Hoechst viability assay, U-251 glioma cells; assay type: cell-based, human; conditions: 72 hours, Hoechst
Experimental: (§1) Cells (in quadruplicate) at the specified density were suspended in 200 μL medium supplemented with 10% FCS seeded in 96-well plates for 24 hours, then exposed to the drugs for 72 hours. The viability of the cells was determined by Hoechst fluorescent assay as described by Nudelman et al., 2005. Leukemic cell viability after 72 hours of treatment was determined by an MTT (3-(4,5-dimethylthiazol-2-yl)-2,5-diphenyltetrazolium bromide) assay as described by Levovich et al., 2007.
(§2) IC50 values were determined by linear regression of the percentage of survival following drug titration.

22RV1 cells = experiment: Hoechst viability assay, 22RV1 prostate carcinoma cells; assay type: cell-based, human; conditions: 72 hours, Hoechst
Experimental: as §1, §2

U-251 cells [6] = experiment: Apoptosis/cell death by annexin V-FITC and propidium iodide FACS, U-251 cells; assay type: cell-based; conditions: Homo sapiens; U-251 glioblastoma cells, 50 μM, 24 hours (untreated 9%)
Experimental: Cells were seeded in six-well plates (10^5 cells/well) for 24 hours and were then treated as specified, trypsinized, washed with PBS, double-stained with annexin V-FITC (fluorescein isothiocyanate) and propidium iodide, according to the manufacturer's instructions and subjected to flow cytometry analysis (FACScalibur cytometer, Becton Dickinson).

Nc1nc2c(ncn2COCCO)c(=O)[nH]1 [acyclovir, reference compound]
acetylation of histone H4 (acetylated histone H4): did not | inhibition of herpes virus replication at concentrations lower than those inhibiting mammalian cellular functions (herpes virus): 300-3000 fold | phase of cell-cycle arrest (U-251 cells [1]; 1 mM): S phase | Percentage of cells in G0-G1 stage (U-251 cells [1]; 1000 μM): 14.1% | Percentage of cells in G2-M stage (U-251 cells [1]; 1000 μM): 12.2% | Percentage of cells in S stage (U-251 cells [1]; 1000 μM): 73.6% | level of oxidation in cells (ROS) (U-251 cells [2]): little if any effect | inhibitory effect on proteasome activity (proteasome): only a marginal inhibitory effect | rate of acyclovir phosphorylation (kinase activity) [3]: no effect on the kinase activity | mitochondrial membrane potential (U-251 cells [4]): no apparent effect | IC50 (U-251 cells [5]): could not be reached | IC50 (22RV1 cells): could not be reached | mortality at 50 µM (U-251 cells [6]): 11%
